Laboratory results: PubChem BioAssay (NCI)
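Cells were grown in 96-well plates and exposed to each compound for 48 hours at five concentrations; endpoints were interpolated linearly between bracketing concentrations, or set to the highest concentration if not reached. GI50 is the concentration that inhibits growth by half. TGI marks complete inhibition of growth.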

Tests used:
Assay in all cases: growth of human tumour cells (NCI), 48 h
786-0 renal = test system: 786-0 renal
A498 renal = test system: A498 renal
A549 NSCLC = test system: A549 NSCLC
ACHN renal = test system: ACHN renal
BT-549 breast = test system: BT-549 breast
CCRF-CEM leukemia = test system: CCRF-CEM leukemia
COLO 205 colon = test system: COLO 205 colon
DU-145 prostate = test system: DU-145 prostate
EKVX NSCLC = test system: EKVX NSCLC
HCC-2998 colon = test system: HCC-2998 colon
HCT-116 colon = test system: HCT-116 colon
HCT-15 colon = test system: HCT-15 colon
HL-60(TB) leukemia = test system: HL-60(TB) leukemia
HOP-62 NSCLC = test system: HOP-62 NSCLC
HOP-92 NSCLC = test system: HOP-92 NSCLC
HS 578T breast = test system: HS 578T breast
HT29 colon = test system: HT29 colon
IGROV1 ovarian = test system: IGROV1 ovarian
KM12 colon = test system: KM12 colon
LOX IMVI melanoma = test system: LOX IMVI melanoma
M14 melanoma = test system: M14 melanoma
MALME-3M melanoma = test system: MALME-3M melanoma
MCF7 breast = test system: MCF7 breast
MDA-MB-231 breast = test system: MDA-MB-231 breast
MDA-MB-435 = test system: MDA-MB-435
MOLT-4 leukemia = test system: MOLT-4 leukemia
NCI-H226 lung = test system: NCI-H226 lung
NCI-H23 lung = test system: NCI-H23 lung
NCI-H460 lung = test system: NCI-H460 lung
NCI-H522 lung = test system: NCI-H522 lung
NCI/ADR-RES ovarian = test system: NCI/ADR-RES ovarian
OVCAR-3 ovarian = test system: OVCAR-3 ovarian
OVCAR-4 ovarian = test system: OVCAR-4 ovarian
OVCAR-5 ovarian = test system: OVCAR-5 ovarian
OVCAR-8 ovarian = test system: OVCAR-8 ovarian
PC-3 prostate = test system: PC-3 prostate
RPMI-8226 leukemia = test system: RPMI-8226 leukemia
RXF 393 renal = test system: RXF 393 renal
SF-268 CNS = test system: SF-268 CNS
SF-295 CNS = test system: SF-295 CNS
SF-539 CNS = test system: SF-539 CNS
SK-MEL-2 melanoma = test system: SK-MEL-2 melanoma
SK-MEL-28 melanoma = test system: SK-MEL-28 melanoma
SK-MEL-5 melanoma = test system: SK-MEL-5 melanoma
SK-OV-3 ovarian = test system: SK-OV-3 ovarian
SN12C renal = test system: SN12C renal
SNB-19 CNS = test system: SNB-19 CNS
SNB-75 CNS = test system: SNB-75 CNS
SR leukemia = test system: SR leukemia
SW-620 colon = test system: SW-620 colon
T-47D breast = test system: T-47D breast
TK-10 renal = test system: TK-10 renal
U251 CNS = test system: U251 CNS
UACC-257 melanoma = test system: UACC-257 melanoma
UACC-62 melanoma = test system: UACC-62 melanoma
UO-31 renal = test system: UO-31 renal

COc1cc(C(=O)/C=C/c2cccnc2Nc2ccccc2)cc(OC)c1OC
GI50 (786-0 renal): 1.29 µM
TGI (786-0 renal): 2.65 µM
GI50 (A498 renal): 1.42 µM
TGI (A498 renal): 2.75 µM
GI50 (A549 NSCLC): 1.3 µM
TGI (A549 NSCLC): 2.86 µM
GI50 (ACHN renal): 1.28 µM
TGI (ACHN renal): 2.57 µM
GI50 (BT-549 breast): 1.26 µM
TGI (BT-549 breast): 2.54 µM
GI50 (CCRF-CEM leukemia): 0.321 µM
TGI (CCRF-CEM leukemia): 1.19 µM
GI50 (COLO 205 colon): 1.29 µM
TGI (COLO 205 colon): 2.62 µM
GI50 (DU-145 prostate): 0.723 µM
TGI (DU-145 prostate): 1.94 µM
GI50 (EKVX NSCLC): 1.61 µM
TGI (EKVX NSCLC): 3.04 µM
GI50 (HCC-2998 colon): 1.18 µM
TGI (HCC-2998 colon): 2.46 µM
GI50 (HCT-116 colon): 0.337 µM
TGI (HCT-116 colon): 1.31 µM
GI50 (HCT-15 colon): 0.744 µM
TGI (HCT-15 colon): 2.4 µM
GI50 (HL-60(TB) leukemia): 1.52 µM
TGI (HL-60(TB) leukemia): 4.98 µM
GI50 (HOP-62 NSCLC): 0.657 µM
TGI (HOP-62 NSCLC): 1.88 µM
GI50 (HOP-92 NSCLC): 0.392 µM
TGI (HOP-92 NSCLC): 2.07 µM
GI50 (HS 578T breast): 2.15 µM
TGI (HS 578T breast): 7.93 µM
GI50 (HT29 colon): 0.514 µM
TGI (HT29 colon): 2.15 µM
GI50 (IGROV1 ovarian): 2.37 µM
TGI (IGROV1 ovarian): 5.3 µM
GI50 (KM12 colon): 0.929 µM
TGI (KM12 colon): 2.54 µM
GI50 (LOX IMVI melanoma): 0.499 µM
TGI (LOX IMVI melanoma): 1.82 µM
GI50 (M14 melanoma): 1.5 µM
TGI (M14 melanoma): 2.92 µM
GI50 (MALME-3M melanoma): 1.92 µM
TGI (MALME-3M melanoma): 3.84 µM
GI50 (MCF7 breast): 0.357 µM
TGI (MCF7 breast): 1.64 µM
GI50 (MDA-MB-231 breast): 1.4 µM
TGI (MDA-MB-231 breast): 3.09 µM
GI50 (MDA-MB-435): 0.637 µM
TGI (MDA-MB-435): 2.08 µM
GI50 (MOLT-4 leukemia): 2.68 µM
TGI (MOLT-4 leukemia): 19.5 µM
GI50 (NCI-H226 lung): 1.23 µM
TGI (NCI-H226 lung): 2.58 µM
GI50 (NCI-H23 lung): 1.43 µM
TGI (NCI-H23 lung): 3 µM
GI50 (NCI-H460 lung): 1.8 µM
TGI (NCI-H460 lung): 3.63 µM
GI50 (NCI-H522 lung): 0.493 µM
TGI (NCI-H522 lung): 1.76 µM
GI50 (NCI/ADR-RES ovarian): 1.03 µM
TGI (NCI/ADR-RES ovarian): 4.56 µM
GI50 (OVCAR-3 ovarian): 0.429 µM
TGI (OVCAR-3 ovarian): 1.48 µM
GI50 (OVCAR-4 ovarian): 1.45 µM
TGI (OVCAR-4 ovarian): 2.76 µM
GI50 (OVCAR-5 ovarian): 1.54 µM
TGI (OVCAR-5 ovarian): 3.11 µM
GI50 (OVCAR-8 ovarian): 1.27 µM
TGI (OVCAR-8 ovarian): 3.49 µM
GI50 (PC-3 prostate): 1.1 µM
TGI (PC-3 prostate): 3.18 µM
GI50 (RPMI-8226 leukemia): 0.349 µM
TGI (RPMI-8226 leukemia): 2.05 µM
GI50 (RXF 393 renal): 1.12 µM
TGI (RXF 393 renal): 2.37 µM
GI50 (SF-268 CNS): 1.55 µM
TGI (SF-268 CNS): 3.09 µM
GI50 (SF-295 CNS): 1.87 µM
TGI (SF-295 CNS): 3.78 µM
GI50 (SF-539 CNS): 1.65 µM
TGI (SF-539 CNS): 3.12 µM
GI50 (SK-MEL-2 melanoma): 1.66 µM
TGI (SK-MEL-2 melanoma): 3.4 µM
GI50 (SK-MEL-28 melanoma): 1.58 µM
TGI (SK-MEL-28 melanoma): 2.93 µM
GI50 (SK-MEL-5 melanoma): 1.34 µM
TGI (SK-MEL-5 melanoma): 2.64 µM
GI50 (SK-OV-3 ovarian): 1.6 µM
TGI (SK-OV-3 ovarian): 2.94 µM
GI50 (SN12C renal): 1.21 µM
TGI (SN12C renal): 2.55 µM
GI50 (SNB-19 CNS): 1.48 µM
TGI (SNB-19 CNS): 2.86 µM
GI50 (SNB-75 CNS): 1.13 µM
TGI (SNB-75 CNS): 2.34 µM
GI50 (SR leukemia): 0.346 µM
TGI (SR leukemia): > 100 µM
GI50 (SW-620 colon): 0.422 µM
TGI (SW-620 colon): 1.66 µM
GI50 (T-47D breast): 1.43 µM
TGI (T-47D breast): 3.07 µM
GI50 (TK-10 renal): 1.82 µM
TGI (TK-10 renal): 3.33 µM
GI50 (U251 CNS): 1.12 µM
TGI (U251 CNS): 2.39 µM
GI50 (UACC-257 melanoma): 1.51 µM
TGI (UACC-257 melanoma): 2.86 µM
GI50 (UACC-62 melanoma): 1.29 µM
TGI (UACC-62 melanoma): 2.6 µM
GI50 (UO-31 renal): 1.19 µM
TGI (UO-31 renal): 2.57 µM
